{"source": "patent US10869476B2", "about": "(priority 2015, dated 2020)", "type_in_all_cases": "in vivo", "key": {"Gibberella zeae": {"test_system": "Gibberella zeae", "details": "winter wheat kernels after harvest, Germany 2015; 75 g a.i./ha, 100 EC formulation plus adjuvant, BBCH 65; HPLC-MS/MS; Untreated Control 497"}, "Fusarium": {"test_system": "Fusarium", "details": "wheat, 100 EC, 67 days after application"}, "Fusarium head blight": {"test_system": "Fusarium head blight", "details": "wheat field trials France and Germany 2016; for Fusarium head blight in % sev. after 11 to 20 days after application: UTC 13; for Fusarium head blight in % sev. after 21 to 46 days after application: UTC 35"}}, "note": "Read-outs that look alike come from different tables or passages of the source.", "data": [{"compound": "CON(C(=O)c1cn(C)nc1C(F)F)C(C)Cc1c(Cl)cc(Cl)cc1Cl", "note": "(stereo not shown) [Pydiflumetofen, 3-(Difluoromethyl)-N-methoxy-1-methyl-N-[1-(2,4,6-trichlorophenyl)-2-propanyl]-1H-pyrazole-4-carboxamide]", "values": [{"measurement": "Deoxynivalenol Content", "setting": "Gibberella zeae", "value": 44, "unit": "ppm"}, {"measurement": "3- Acetyl Deoxynivalenol", "setting": "Fusarium; France, second trial (UTC 189), 45 g a.i./ha", "value": 63, "unit": "ppb"}, {"measurement": "3- Acetyl Deoxynivalenol", "setting": "Fusarium; France, second trial (UTC 189), 60 g a.i./ha", "value": "<50", "unit": "ppb"}, {"measurement": "Nivalenol", "setting": "Fusarium; Germany, first trial (UTC 126), 45 g a.i./ha", "value": 0, "unit": "ppb"}, {"measurement": "Nivalenol", "setting": "Fusarium; Germany, first trial (UTC 126), 60 g a.i./ha", "value": 0, "unit": "ppb"}, {"measurement": "3- Acetyl Deoxynivalenol", "setting": "Fusarium; Germany, second trial (UTC 56), 45 g a.i./ha", "value": 0, "unit": "ppb"}, {"measurement": "3- Acetyl Deoxynivalenol", "setting": "Fusarium; Germany, second trial (UTC 56), 60 g a.i./ha", "value": 0, "unit": "ppb"}, {"measurement": "Nivalenol", "setting": "Fusarium; Germany, second trial (UTC 159), 45 g a.i./ha", "value": 0, "unit": "ppb"}, {"measurement": "Nivalenol", "setting": "Fusarium; Germany, second trial (UTC 159), 60 g a.i./ha", "value": 0, "unit": "ppb"}, {"measurement": "Fusarium head blight in % sev. after 11 to 20 days after application", "setting": "Fusarium head blight; 45 g a.i./ha", "value": 42, "unit": "% sev."}, {"measurement": "Fusarium head blight in % sev. after 21 to 46 days after application", "setting": "Fusarium head blight; 45 g a.i./ha", "value": 51, "unit": "% sev."}, {"measurement": "Fusarium head blight in % sev. after 11 to 20 days after application", "setting": "Fusarium head blight; 60 g a.i./ha", "value": 52, "unit": "% sev."}, {"measurement": "Fusarium head blight in % sev. after 21 to 46 days after application", "setting": "Fusarium head blight; 60 g a.i./ha", "value": 64, "unit": "% sev."}]}]}
